From BindingDB's records for patent US20250170122 (Intellikine, 2025)

Tests used:
Assay in all cases: Inhibition Assays of p110α/p85α, p110β/p85α, p110δ/p85α, and p110γ
[1] = target: T1, Phosphatidylinositol 4,5-bisphosphate 3-kinase catalytic subunit gamma isoform (Homo sapiens, UniProt P48736)
T1 construct: gene PIK3CG
Protocol: (§1) Briefly, the assay is a time resolved FRET assay that indirectly measures PIP3 product formed by the activity of a PI3-K. The kinase reaction is performed in a microtitre plate (e.g., a 384 well microtitre plate). The total reaction volume is approximately 20 ul per well. In the first step, each well receives 2 ul of test compound in 20% dimethylsulphoxide resulting in a 2% DMSO final concentration. Next, approximately 14.5 ul of a kinase/PIP2 mixture (diluted in 1× reaction buffer) is added per well for a final concentration of 0.25-0.3 ug/ml kinase and 10 uM PIP2. […] To start the reaction, 3.5 ul of ATP (diluted in 1× reaction buffer) is added per well for a final concentration of 10 uM ATP. The plate is sealed and incubated for 1 hour at room temperature. The reaction is stopped by adding 5 ul of Stop Solution per well and then 5 ul of Detection Mix is added per well. The plate is sealed, incubated for 1 hour at room temperature, and then read on an appropriate plate reader. Data is analyzed and IC50s are generated using GraphPad Prism 5.

[2] = target: T2, Phosphatidylinositol 4,5-bisphosphate 3-kinase catalytic subunit delta isoform (Homo sapiens, UniProt O00329)
T2 sequence (O00329 whole entry): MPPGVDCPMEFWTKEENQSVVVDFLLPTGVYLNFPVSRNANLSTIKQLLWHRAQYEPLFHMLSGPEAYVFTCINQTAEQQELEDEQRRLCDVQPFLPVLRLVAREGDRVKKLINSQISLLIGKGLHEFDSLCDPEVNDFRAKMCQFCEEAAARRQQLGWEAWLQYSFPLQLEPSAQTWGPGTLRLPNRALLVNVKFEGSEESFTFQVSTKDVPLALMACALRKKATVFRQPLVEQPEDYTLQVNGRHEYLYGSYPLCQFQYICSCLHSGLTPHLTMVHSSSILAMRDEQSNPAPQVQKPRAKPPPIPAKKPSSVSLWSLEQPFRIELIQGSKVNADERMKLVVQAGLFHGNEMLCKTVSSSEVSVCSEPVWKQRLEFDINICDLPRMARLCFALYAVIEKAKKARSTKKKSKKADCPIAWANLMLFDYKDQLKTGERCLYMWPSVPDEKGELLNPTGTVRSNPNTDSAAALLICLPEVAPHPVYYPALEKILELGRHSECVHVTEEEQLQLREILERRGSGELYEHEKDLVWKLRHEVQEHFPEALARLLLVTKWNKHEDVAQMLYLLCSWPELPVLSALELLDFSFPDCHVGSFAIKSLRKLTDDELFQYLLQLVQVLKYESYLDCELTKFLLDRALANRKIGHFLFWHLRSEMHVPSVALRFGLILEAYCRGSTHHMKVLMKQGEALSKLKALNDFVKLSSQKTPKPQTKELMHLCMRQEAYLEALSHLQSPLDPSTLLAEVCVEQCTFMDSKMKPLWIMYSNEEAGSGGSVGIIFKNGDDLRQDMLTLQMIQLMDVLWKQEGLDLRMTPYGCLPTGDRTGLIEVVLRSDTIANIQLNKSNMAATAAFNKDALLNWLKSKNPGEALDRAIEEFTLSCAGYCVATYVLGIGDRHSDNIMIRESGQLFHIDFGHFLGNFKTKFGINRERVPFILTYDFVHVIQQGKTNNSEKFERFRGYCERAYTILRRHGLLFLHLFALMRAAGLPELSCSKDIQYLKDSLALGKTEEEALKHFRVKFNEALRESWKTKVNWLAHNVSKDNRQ
Protocol: as §1

[3] = target: Phosphatidylinositol 4,5-bisphosphate 3-kinase catalytic subunit beta isoform (Homo sapiens, UniProt P42338)
Sequence of Phosphatidylinositol 4,5-bisphosphate 3-kinase catalytic subunit beta isoform (P42338 whole entry, canonical isoform): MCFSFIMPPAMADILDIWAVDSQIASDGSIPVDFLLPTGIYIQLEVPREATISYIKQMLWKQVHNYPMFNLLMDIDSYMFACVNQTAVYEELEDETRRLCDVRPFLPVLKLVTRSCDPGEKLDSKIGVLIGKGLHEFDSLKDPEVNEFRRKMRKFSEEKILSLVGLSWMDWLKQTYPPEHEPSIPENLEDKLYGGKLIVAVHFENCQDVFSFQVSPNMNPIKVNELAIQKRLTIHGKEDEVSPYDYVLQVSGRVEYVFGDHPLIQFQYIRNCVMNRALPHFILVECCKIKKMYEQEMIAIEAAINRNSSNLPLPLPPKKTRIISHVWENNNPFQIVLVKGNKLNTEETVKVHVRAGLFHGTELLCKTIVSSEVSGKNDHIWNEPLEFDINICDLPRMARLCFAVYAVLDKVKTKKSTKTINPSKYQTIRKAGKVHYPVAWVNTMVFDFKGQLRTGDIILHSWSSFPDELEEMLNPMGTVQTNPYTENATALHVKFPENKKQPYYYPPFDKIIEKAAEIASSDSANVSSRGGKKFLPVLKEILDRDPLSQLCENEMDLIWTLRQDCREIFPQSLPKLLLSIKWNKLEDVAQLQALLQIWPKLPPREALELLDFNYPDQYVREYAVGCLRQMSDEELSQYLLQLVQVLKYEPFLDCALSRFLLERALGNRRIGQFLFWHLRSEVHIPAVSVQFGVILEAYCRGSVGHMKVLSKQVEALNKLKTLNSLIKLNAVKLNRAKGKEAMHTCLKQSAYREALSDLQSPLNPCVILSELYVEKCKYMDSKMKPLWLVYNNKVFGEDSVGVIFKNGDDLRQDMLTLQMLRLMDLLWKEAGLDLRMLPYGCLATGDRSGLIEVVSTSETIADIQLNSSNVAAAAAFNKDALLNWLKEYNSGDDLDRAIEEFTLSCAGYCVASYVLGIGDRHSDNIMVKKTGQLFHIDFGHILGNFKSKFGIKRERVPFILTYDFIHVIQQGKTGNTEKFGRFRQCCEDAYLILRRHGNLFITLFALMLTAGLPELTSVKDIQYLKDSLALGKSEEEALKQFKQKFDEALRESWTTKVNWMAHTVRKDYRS
Protocol: as §1

[4] = target: Phosphatidylinositol 4,5-bisphosphate 3-kinase catalytic subunit alpha isoform (Homo sapiens, UniProt P42336)
Sequence of Phosphatidylinositol 4,5-bisphosphate 3-kinase catalytic subunit alpha isoform (P42336 whole entry, canonical isoform): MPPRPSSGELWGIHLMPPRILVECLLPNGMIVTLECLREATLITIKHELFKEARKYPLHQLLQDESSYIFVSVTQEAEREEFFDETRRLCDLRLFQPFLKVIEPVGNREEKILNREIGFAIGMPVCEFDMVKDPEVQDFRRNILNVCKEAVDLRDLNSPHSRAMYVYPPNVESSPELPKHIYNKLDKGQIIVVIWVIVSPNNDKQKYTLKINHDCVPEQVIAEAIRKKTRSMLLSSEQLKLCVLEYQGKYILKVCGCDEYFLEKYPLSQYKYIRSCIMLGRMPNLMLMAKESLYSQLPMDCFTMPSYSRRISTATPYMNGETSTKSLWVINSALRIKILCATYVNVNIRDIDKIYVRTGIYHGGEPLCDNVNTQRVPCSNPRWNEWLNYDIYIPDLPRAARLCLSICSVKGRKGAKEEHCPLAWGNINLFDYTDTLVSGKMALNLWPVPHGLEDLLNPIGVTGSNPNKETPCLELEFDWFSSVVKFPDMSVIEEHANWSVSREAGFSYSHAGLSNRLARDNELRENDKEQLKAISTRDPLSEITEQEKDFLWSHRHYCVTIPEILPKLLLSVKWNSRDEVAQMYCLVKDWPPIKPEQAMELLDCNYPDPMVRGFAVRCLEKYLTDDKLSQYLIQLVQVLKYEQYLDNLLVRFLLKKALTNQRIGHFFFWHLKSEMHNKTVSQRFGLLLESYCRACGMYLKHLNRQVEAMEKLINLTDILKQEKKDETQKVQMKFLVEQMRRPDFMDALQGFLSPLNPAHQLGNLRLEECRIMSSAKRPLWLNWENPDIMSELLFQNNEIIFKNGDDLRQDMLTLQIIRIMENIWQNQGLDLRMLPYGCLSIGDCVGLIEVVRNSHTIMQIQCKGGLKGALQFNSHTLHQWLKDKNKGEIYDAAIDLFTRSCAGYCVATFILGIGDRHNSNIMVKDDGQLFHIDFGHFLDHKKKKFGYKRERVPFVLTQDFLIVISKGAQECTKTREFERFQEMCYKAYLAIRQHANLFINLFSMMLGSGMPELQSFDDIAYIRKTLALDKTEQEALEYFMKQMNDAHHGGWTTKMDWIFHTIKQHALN
Protocol: as §1

T1 sequence (P48736 whole entry, looked up, canonical isoform): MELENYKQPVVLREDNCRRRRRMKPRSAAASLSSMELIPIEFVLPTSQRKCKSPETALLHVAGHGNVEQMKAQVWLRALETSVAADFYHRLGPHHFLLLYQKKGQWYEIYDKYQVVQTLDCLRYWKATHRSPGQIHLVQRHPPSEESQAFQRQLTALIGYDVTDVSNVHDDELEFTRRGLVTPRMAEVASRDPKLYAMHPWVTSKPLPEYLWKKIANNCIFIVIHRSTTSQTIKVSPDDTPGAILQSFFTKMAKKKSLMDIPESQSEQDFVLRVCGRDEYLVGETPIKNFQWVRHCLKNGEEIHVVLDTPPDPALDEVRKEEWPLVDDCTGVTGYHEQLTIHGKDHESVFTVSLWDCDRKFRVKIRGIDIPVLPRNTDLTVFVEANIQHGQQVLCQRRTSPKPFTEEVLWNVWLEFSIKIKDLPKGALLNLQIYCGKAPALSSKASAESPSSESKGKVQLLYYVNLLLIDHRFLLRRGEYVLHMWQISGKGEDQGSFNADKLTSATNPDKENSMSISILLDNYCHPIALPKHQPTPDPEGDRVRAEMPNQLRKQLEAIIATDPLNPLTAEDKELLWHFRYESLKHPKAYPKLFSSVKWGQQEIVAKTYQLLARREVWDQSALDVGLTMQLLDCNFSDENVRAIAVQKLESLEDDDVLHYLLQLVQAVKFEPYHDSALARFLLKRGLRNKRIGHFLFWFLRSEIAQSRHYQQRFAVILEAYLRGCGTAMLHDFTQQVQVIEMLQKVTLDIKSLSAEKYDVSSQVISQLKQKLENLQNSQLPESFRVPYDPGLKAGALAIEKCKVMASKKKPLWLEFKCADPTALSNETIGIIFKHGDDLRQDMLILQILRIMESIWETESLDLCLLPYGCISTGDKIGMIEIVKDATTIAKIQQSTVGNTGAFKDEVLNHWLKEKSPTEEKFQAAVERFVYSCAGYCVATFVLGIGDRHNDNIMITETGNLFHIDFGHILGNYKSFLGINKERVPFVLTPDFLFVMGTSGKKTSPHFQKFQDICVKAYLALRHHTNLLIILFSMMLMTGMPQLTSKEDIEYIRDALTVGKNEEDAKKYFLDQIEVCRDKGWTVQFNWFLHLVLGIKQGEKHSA

| IC50 [1] | IC50 [2] | IC50 [3] | IC50 [4] | SMILES |
| --- | --- | --- | --- | --- |
| < 100 nM | < 100 nM |  |  | CNc1ncc(C(F)(F)F)c(N[C@@H](C)c2cc3cccc(Cl)c3c(=O)n2-c2ccccc2)n1 [US20250170122, Compound 354] |
| < 100 nM | < 100 nM | < 100 nM |  | C[C@H](Nc1ncnc2[nH]cnc12)c1cc2cccc(Cl)c2c(=O)n1-c1ccc(F)cc1 [US20250170122, Compound 329] |
| < 100 nM | < 100 nM |  |  | C[C@H](Nc1ncnc2sccc12)c1cc2cccc(Cl)c2c(=O)n1-c1ccccc1 [US20250170122, Compound 343] |
| < 100 nM | < 100 nM |  |  | Cc1csc2ncnc(N[C@@H](C)c3cc4cccc(Cl)c4c(=O)n3-c3ccccc3)c12 [US20250170122, Compound 352] |
| < 100 nM | < 100 nM |  |  | C[C@H](Nc1ncnc2[nH]cnc12)c1cc2cccc(Cl)c2c(=O)n1-c1cccc(Cl)c1 [US20250170122, Compound 365] |
| < 100 nM | < 100 nM |  |  | C[C@H](Nc1ncnc2[nH]cnc12)c1cc2cccc(F)c2c(=O)n1-c1ccccc1 [US20250170122, Compound 330] |
|  | < 100 nM |  |  | CC(C)[C@H](Nc1ncnc2[nH]cnc12)c1cc2cccc(Cl)c2c(=O)n1-c1ccccc1 [US20250170122, Compound 364] |
| < 100 nM | < 100 nM |  |  | C[C@H](Nc1ncnc2[nH]cnc12)c1cc2cccc(Cl)c2c(=O)n1-c1cccc(F)c1 [US20250170122, Compound 328] |
|  | < 100 nM |  |  | C[C@H](Nc1ncnc2[nH]cnc12)c1cc2ncccc2c(=O)n1-c1ccccc1 [US20250170122, Compound 357] |
| < 100 nM |  |  |  | C[C@H](Nc1ncnc2[nH]cnc12)c1cc2cccc(F)c2c(=O)n1-c1ccc(F)cc1 [US20250170122, Compound 332] |
| < 100 nM |  |  |  | Cc1cccc2cc(C(C)Nc3ncnc4[nH]cnc34)n(-c3ccccc3F)c(=O)c12 (stereo not drawn) [US20250170122, Compound 203] |
|  | < 100 nM |  |  | CC(C)C[C@H](Nc1ncnc2[nH]cnc12)c1cc2cccc(Cl)c2c(=O)n1-c1ccccc1 [US20250170122, Compound 363] |
| < 100 nM |  |  |  | C[C@H](Nc1ncnc2ccccc12)c1cc2cccc(Cl)c2c(=O)n1-c1ccccc1 [US20250170122, Compound 342] |
| < 100 nM | < 100 nM |  |  | C[C@H](Nc1nc(N)ncc1C(F)(F)F)c1cc2cccc(Cl)c2c(=O)n1-c1ccccc1 [US20250170122, Compound 346] |
| < 100 nM |  |  |  | C[C@H](Nc1nc(N)nc2ccccc12)c1cc2cccc(Cl)c2c(=O)n1-c1ccccc1 [US20250170122, Compound 359] |
|  | < 100 nM |  |  | C[C@H](Nc1ncnc2[nH]cnc12)c1cc2cccc(Cl)c2c(=O)n1-c1cccc(C(F)(F)F)c1 [US20250170122, Compound 366] |
| < 100 nM | < 100 nM |  |  | C[C@H](Nc1ncnc2ccsc12)c1cc2cccc(Cl)c2c(=O)n1-c1ccccc1 [US20250170122, Compound 344] |

Continued, molecule first:

| SMILES | IC50 [1] | IC50 [2] | IC50 [3] | IC50 [4] |
| --- | --- | --- | --- | --- |
| Cc1cccc2cc(Cn3nc(-c4cccc(Cl)c4)c4c(N)ncnc43)n(-c3ccccc3F)c(=O)c12 [US20250170122, Compound 38] | < 10000 nM |  |  |  |
| Cc1cccc2cc(Cn3nc(I)c4c(N)ncnc43)n(C3CCCC3)c(=O)c12 [US20250170122, Compound 57] | < 10000 nM | < 1000 nM | > 10000 nM | > 10000 nM |
| Cc1ccccc1-n1c(Cn2cnc3c(N)ncnc32)cc2cccc(C)c2c1=O [US20250170122, Compound 5] | > 10000 nM | < 10000 nM |  |  |
| [2H]c1nc2c(N[C@@H](C)c3cc4cccc(Cl)c4c(=O)n3C3CC3)ncnc2[nH]1 [US20250170122, Compound 350] |  |  |  | < 1000 nM |
| Cc1cccc2cc(Cn3nc(-c4ccc(Cl)c(O)c4)c4c(N)ncnc43)n(C3CCCC3)c(=O)c12 [US20250170122, Compound 71] | < 1000 nM | < 1000 nM | < 10000 nM | > 10000 nM |
| Nc1ncnc2c1c(-c1cn[nH]c1)nn2Cc1cc2cccc(Cl)c2c(=O)n1-c1cccc(F)c1 [US20250170122, Compound 339] |  | < 100 nM |  |  |
| Cc1cccc2cc(Cn3nc(-c4ccc(O)cc4)c4c(N)ncnc43)n(-c3ccccc3F)c(=O)c12 [US20250170122, Compound 46] | < 1000 nM | < 10000 nM | > 10000 nM | > 10000 nM |
| CC(C)n1c(Cn2nc(I)c3c(N)ncnc32)cc2ccccc2c1=O [US20250170122, Compound 129] |  | < 10000 nM |  |  |
| C[C@H](Nc1ncnc2[nH]cnc12)c1cc2cccc(F)c2c(=O)n1-c1cccc(F)c1 [US20250170122, Compound 331] |  | < 100 nM |  |  |
| Nc1ncnc2c1c(-c1cn[nH]c1)nn2Cc1cc2cccc(Cl)c2c(=O)n1-c1ccccc1 [US20250170122, Compound 338] | < 100 nM | < 100 nM |  |  |
| Cc1ccccc1-n1c(Cn2nc(-c3cn[nH]c3)c3c(N)ncnc32)cc2cccc(Cl)c2c1=O [US20250170122, Compound 336] | < 100 nM | < 100 nM |  |  |
| CC(=O)Nc1nc2ccc(-c3nn(Cc4cc5cccc(C)c5c(=O)n4-c4ccccc4)c(C)c3CN)cc2s1 [US20250170122, Compound 177] | < 100 nM | < 100 nM |  |  |
| Nc1ncnc2c1c(-c1cn[nH]c1)nn2Cc1cc2cccc(Cl)c2c(=O)n1-c1ccccc1F [US20250170122, Compound 337] |  | < 100 nM |  |  |
